Columns and labels:
Format in all cases: functional, organism-based
[1] = test system: Escherichia coli; assay: Antimicrobial activity against drug-resistant Escherichia coli isolate 1 expressing beta-lactamase CTX-M-15 isolated from urine of patient with history of hypertension, hyperlipidemia by Etest
[2] = test system: Escherichia coli; assay: Antimicrobial activity against drug-resistant Escherichia coli isolate 1 expressing beta-lactamase CTX-M-15 isolated from urine of patient with history of hypertension, hyperlipidemia by broth microdilution method
[3] = test system: Escherichia coli; assay: (§1) Antimicrobial activity against drug-resistant Escherichia coli isolate 2 expressing beta-lactamase CTX-M-15 isolated from patient past medical history included multiple courses of compound treatment, multiple sclerosis, pulmonary embolism, seizure disorder, tracheostomy for respiratory failure, gastrostomy secondary to dysphagia, congestive heart failure, diabetes mellitus, and peripheral inserted central by Etest
[4] = test system: Escherichia coli; assay: Antimicrobial activity against Escherichia coli ATCC 25922 by broth microdilution method
[5] = test system: Escherichia coli; assay: Antimicrobial activity against Escherichia coli ATCC 25922 by Etest
[6] = test system: Escherichia coli; assay: as §1, with “microdilution method” for “Etest”

| Sequence | MIC [1] [µg/mL] | MBC [2] [µg/mL] | MIC [2] [µg/mL] | MIC [3] [µg/mL] | MBC [4] [µg/mL] | MIC [4] [µg/mL] | MIC [5] [µg/mL] | MBC [6] [µg/mL] | MIC [6] [µg/mL] |
| --- | --- | --- | --- | --- | --- | --- | --- | --- | --- |
| COLISTIN | 16 | 16 | 16 | 16 | 1 | 1 | 1.5 | 32 | 32 |
| POLYMYXIN B | 16 | 32 | 16 | 24 | 0.5 | 0.5 | 1 | 32 | 16 |

Reference: ChEMBL document CHEMBL1687832, “Polymyxin-resistant clinical isolates of Escherichia coli” (Antimicrob Agents Chemother, 2011)
